Columns and labels:
MDA-MB-435 = test: Growth inhibition of human MDA-MB-435 cells at 10 uM after 48 hrs by sulforhodamine B assay; format: functional; settings: MDA-MB-435, 48 h, read-out: GI
RPMI-8226 = test: Growth inhibition of human RPMI8226 cells at 10 uM after 48 hrs by sulforhodamine B assay; format: functional; settings: RPMI-8226, 48 h, read-out: GI
RXF 393 = test: Growth inhibition of human RXF393 cells at 10 uM after 48 hrs by sulforhodamine B assay; format: functional; settings: RXF 393, 48 h, read-out: GI
OVCAR-4 = test: Growth inhibition of human OVCAR4 cells at 10 uM after 48 hrs by sulforhodamine B assay; format: functional; settings: OVCAR-4, 48 h, read-out: GI
NCI-H522 = test: Growth inhibition of human NCI-H522 cells at 10 uM after 48 hrs by sulforhodamine B assay; format: functional; settings: NCI-H522, 48 h, read-out: GI
HOP-92 = test: Growth inhibition of human HOP92 cells at 10 uM after 48 hrs by sulforhodamine B assay; format: functional; settings: HOP-92, 48 h, read-out: GI
CAKI-1 = test: Growth inhibition of human CAKI-1 cells at 10 uM after 48 hrs by sulforhodamine B assay; format: functional; settings: CAKI-1, 48 h, read-out: GI
PC-3 = test: Growth inhibition of human PC3 cells at 10 uM after 48 hrs by sulforhodamine B assay; format: functional; settings: PC-3, 48 h, read-out: GI
786-0 = test: Growth inhibition of human 786-0 cells at 10 uM after 48 hrs by sulforhodamine B assay; format: functional; settings: 786-0, 48 h, read-out: GI
MDA-MB-468 = test: Growth inhibition of human MDA-MB-468 cells at 10 uM after 48 hrs by sulforhodamine B assay; format: functional; settings: MDA-MB-468, 48 h, read-out: GI
LOX IMVI = test: Growth inhibition of human LOXIMVI cells at 10 uM after 48 hrs by sulforhodamine B assay; format: functional; settings: read-out: GI
HL-60(TB) = test: Growth inhibition of human HL-60(TB) cells at 10 uM after 48 hrs by sulforhodamine B assay; format: functional; settings: HL-60, 48 h, read-out: GI
MCF7 = test: Growth inhibition of human MCF7 cells at 10 uM after 48 hrs by sulforhodamine B assay; format: functional; settings: MCF7, 48 h, read-out: GI
SF-295 = test: Growth inhibition of human SF295 cells at 10 uM after 48 hrs by sulforhodamine B assay; format: functional; settings: SF-295, 48 h, read-out: GI
MDA-MB-231 = test: Growth inhibition of human MDA-MB-231 cells at 10 uM after 48 hrs by sulforhodamine B assay; format: functional; settings: MDA-MB-231, 48 h, read-out: GI
SNB-75 = test: Growth inhibition of human SNB75 cells at 10 uM after 48 hrs by sulforhodamine B assay; format: functional; settings: SNB-75, 48 h, read-out: GI
MOLT-4 = test: Growth inhibition of human MOLT4 cells at 10 uM after 48 hrs by sulforhodamine B assay; format: functional; settings: MOLT-4, 48 h, read-out: GI
CCRF-CEM = test: Growth inhibition of human CCRF-CEM cells at 10 uM after 48 hrs by sulforhodamine B assay; format: functional; settings: read-out: GI
COLO 205 = test: Growth inhibition of human COLO205 cells at 10 uM after 48 hrs by sulforhodamine B assay; format: functional; settings: COLO 205, 48 h, read-out: GI
UO-31 = test: Growth inhibition of human UO31 cells at 10 uM after 48 hrs by sulforhodamine B assay; format: functional; settings: UO-31, 48 h, read-out: GI
KM12 = test: Growth inhibition of human KM12 cells at 10 uM after 48 hrs by sulforhodamine B assay; format: functional; settings: KM12, 48 h, read-out: GI
HCT-116 = test: Growth inhibition of human HCT116 cells at 10 uM after 48 hrs by sulforhodamine B assay; format: functional; settings: HCT-116, 48 h, read-out: GI
UACC-62 = test: Growth inhibition of human UACC62 cells at 10 uM after 48 hrs by sulforhodamine B assay; format: functional; settings: UACC-62, 48 h, read-out: GI
[1] = Growth inhibition of human NCI-ADR-RES cells at 10 uM after 48 hrs by sulforhodamine B assay; format: functional; settings: read-out: GI
Malme-3M = test: Growth inhibition of human MALME-3M cells at 10 uM after 48 hrs by sulforhodamine B assay; format: functional; settings: read-out: GI
A498 = test: Growth inhibition of human A498 cells at 10 uM after 48 hrs by sulforhodamine B assay; format: functional; settings: A498, 48 h, read-out: GI
HOP-62 = test: Growth inhibition of human HOP62 cells at 10 uM after 48 hrs by sulforhodamine B assay; format: functional; settings: HOP-62, 48 h, read-out: GI
HCT-15 = test: Growth inhibition of human HCT15 cells at 10 uM after 48 hrs by sulforhodamine B assay; format: functional; settings: HCT-15, 48 h, read-out: GI
SK-MEL-5 = test: Growth inhibition of human SK-MEL-5 cells at 10 uM after 48 hrs by sulforhodamine B assay; format: functional; settings: SK-MEL-5, 48 h, read-out: GI
T47D = test: Growth inhibition of human T47D cells at 10 uM after 48 hrs by sulforhodamine B assay; format: functional; settings: read-out: GI
Ovis aries = species on record: Ovis aries; test: Inhibition of sheep brain tubulin polymerization at 100 uM using DAPI by fluorimetry
K562 = test: Growth inhibition of human K562 cells at 10 uM after 48 hrs by sulforhodamine B assay; format: functional; settings: K562, 48 h, read-out: GI

Row | SMILES | inhibition of growth at 10 µM (MDA-MB-435) [%] | inhibition of growth at 10 µM (RPMI-8226) [%] | inhibition of growth at 10 µM (RXF 393) [%] | inhibition of growth at 10 µM (OVCAR-4) [%] | inhibition of growth at 10 µM (NCI-H522) [%] | inhibition of growth at 10 µM (HOP-92) [%] | inhibition of growth at 10 µM (CAKI-1) [%] | inhibition of growth at 10 µM (PC-3) [%] | inhibition of growth at 10 µM (786-0) [%] | inhibition of growth at 10 µM (MDA-MB-468) [%] | inhibition of growth at 10 µM (LOX IMVI) [%] | inhibition of growth at 10 µM (HL-60(TB)) [%] | inhibition of growth at 10 µM (MCF7) [%] | inhibition of growth at 10 µM (SF-295) [%] | inhibition of growth at 10 µM (MDA-MB-231) [%] | inhibition of growth at 10 µM (SNB-75) [%] | inhibition of growth at 10 µM (MOLT-4) [%] | inhibition of growth at 10 µM (CCRF-CEM) [%] | inhibition of growth at 10 µM (COLO 205) [%] | inhibition of growth at 10 µM (UO-31) [%] | further results
1 | CCOC(=O)c1cc(C(=O)N2c3ccccc3Sc3ccccc32)n2ccc(N(C)C)cc12 | 74.5 | 0 | 33.3 | 9.5 | 26.2 | 18.4 | 23.2 | 50.7 | 0 | 19.7 | 20.2 | 6.7 | 18.5 | 22.8 | 7.2 | 30.1 | 15.3 | 27.1 | 0 | 0 | inhibition of growth at 10 µM (KM12): 26.4%; inhibition of growth at 10 µM (HCT-116): 12.1%; inhibition of growth at 10 µM (UACC-62): 27.7%; inhibition of growth at 10 µM [1]: 29.4%; inhibition of growth at 10 µM (Malme-3M): 22.7%; inhibition of growth at 10 µM (A498): 4.4%; inhibition of growth at 10 µM (HOP-62): 29.5%; inhibition of growth at 10 µM (HCT-15): 18.3%; inhibition of growth at 10 µM (SK-MEL-5): 23.2%; inhibition of growth at 10 µM (T47D): 14.7%; inhibition (Ovis aries): 42%
2 | O=C(c1cnc2ccccn12)N1c2ccccc2Sc2ccccc21 | 6.7 | 36 | 0 | 0 | 6.6 | 33.8 | 5.9 | 45.1 | 5.3 | 7.3 | 12 | 38.1 | 4.6 | 16 | 7.4 | 0 | 0 | 3.1 | 19.1 | 0 | inhibition of growth at 10 µM (K562): 2.3%; inhibition of growth at 10 µM (KM12): 14%; inhibition of growth at 10 µM (HCT-116): 17.8%; inhibition of growth at 10 µM (UACC-62): 39.3%; inhibition of growth at 10 µM [1]: 12.8%; inhibition of growth at 10 µM (Malme-3M): 2%; inhibition of growth at 10 µM (HOP-62): 3.4%; inhibition of growth at 10 µM (HCT-15): 17.3%; inhibition of growth at 10 µM (SK-MEL-5): 14.6%; inhibition of growth at 10 µM (T47D): 19.2%; inhibition (Ovis aries): 38%
